21 compounds from ChEMBL document CHEMBL4373660, “The synthesis and biological evaluation of novel gardenamide A derivatives as multifunctional neuroprotective agents” (Medchemcomm, 2019) can be followed below.

Molecules are shown by their SMILES.

The test system of series [1] is Cortical neurone. Nature of the series: Neuroprotective activity against OGD-induced neurotoxicity in Sprague-Dawley rat cortical neuron assessed as cell survival rate at 0.1 uM pretreated for 24 hrs followed by incubation in oxygen and glucose deprivation medium for 2 hrs followed by exposure to reoxygenation by re-incubating in normoxia condition for 24 hrs by MTT assay (reference value: 58.5 to 61.2 %). It is filed as functional. On the technique in general: Tetrazolium assays rely on reduction of a dye to a coloured formazan, in cell work by metabolically active cells.

The subject of series [2] is Cortical neurone. As to the kind of experiment: Neuroprotective activity against OGD-induced neurotoxicity in Sprague-Dawley rat cortical neuron assessed as cell survival rate at 1 uM pretreated for 24 hrs followed by incubation in oxygen and glucose deprivation medium for 2 hrs followed by exposure to reoxygenation by re-incubating in normoxia condition for 24 hrs by MTT assay (reference value: 58.5 to 61.2 %). It is filed as functional.

Series [3] relates to Cortical neurone. Nature of the series: Neuroprotective activity against OGD-induced neurotoxicity in Sprague-Dawley rat cortical neuron assessed as cell survival rate at 10 uM pretreated for 24 hrs followed by incubation in oxygen and glucose deprivation medium for 2 hrs followed by exposure to reoxygenation by re-incubating in normoxia condition for 24 hrs by MTT assay (reference value: 58.5 to 61.2 %). It is filed as functional.

Series [4] in a line: Neuroprotective activity against H2O2-induced neurotoxicity in Sprague-Dawley rat hippocampal neuron assessed as cell survival rate at 0.1 uM incubated for 24 hrs in presence of 150 uM H2O2 by MTT assay (reference value: 41.6 to 43.2 %). It is filed as functional, Hippocampal neurone.
The nature of series [5]: Neuroprotective activity against H2O2-induced neurotoxicity in Sprague-Dawley rat hippocampal neuron assessed as cell survival rate at 1 uM incubated for 24 hrs in presence of 150 uM H2O2 by MTT assay (reference value: 41.6 to 43.2 %). It is filed as functional, Hippocampal neurone.
The nature of series [6]: Neuroprotective activity against H2O2-induced neurotoxicity in Sprague-Dawley rat hippocampal neuron assessed as cell survival rate at 10 uM incubated for 24 hrs in presence of 150 uM H2O2 by MTT assay (reference value: 41.6 to 43.2 %). It is filed as functional, Hippocampal neurone.
Series [7] can be described thus: Cytotoxicity against Sprague-Dawley rat cortical neuron assessed as cell survival at 3.7 uM incubated for 48 hrs by CellTiter Glo-based luminescence assay relative to control. The note with it: rat cortical neurons, read-out: Activity. Set-up: species or system Cortical neurone. Background: Cellular ATP, detected with luciferase, serves as a proxy for viable cell number.

A short description of series [8]: Cytotoxicity against Sprague-Dawley rat cortical neuron assessed as cell survival at 33.3 uM incubated for 48 hrs by CellTiter Glo-based luminescence assay relative to control. The note with it: rat cortical neurons, read-out: Activity. Set-up: species or system Cortical neurone.
The nature of series [9]: Cytotoxicity against Sprague-Dawley rat cortical neuron assessed as cell survival at 11.1 uM incubated for 48 hrs by CellTiter Glo-based luminescence assay relative to control. The note with it: rat cortical neurons, read-out: Activity. The arrangement: species or system Cortical neurone.
The nature of series [10]: Cytotoxicity against Sprague-Dawley rat cortical neuron assessed as cell survival at 100 uM incubated for 48 hrs by CellTiter Glo-based luminescence assay relative to control. The arrangement: species or system Cortical neurone. The note with it: rat cortical neurons, read-out: Activity.
Series [11] has as its system Hippocampal neurone. As to the kind of experiment: Neuroprotective activity against amyloid beta (1 to 42)-induced neurotoxicity in Sprague-Dawley rat hippocampal neuron assessed as increase in cell survival rate incubated for 48 hrs in presence of amyloid beta (1 to 42) by CellTiter Glo-based luminescence assay. It is filed as functional.
The subject of series [12] is Hippocampal neurone. Nature of the series: Neuroprotective activity against H2O2-induced neurotoxicity in Sprague-Dawley rat hippocampal neuron assessed as increase in cell survival rate incubated for 24 hrs in presence of 150 uM H2O2 by MTT assay. It is filed as functional, cell-based.

Turning to `COC(=O)C1=CN(C(C)C)C(=O)[C@@H]2C(CN3CCN(Cc4cccc(OC)c4)CC3)=CC[C@H]12.Cl.Cl`, the Activity in the series with Cortical neurone [1] is given as 60.6%; in the series on Cortical neurone [2], 62.1%; in the series with Cortical neurone [3], 64%.
In the same order, the values of `COC(=O)C1=CN(C)C(=O)[C@@H]2C(CN3CCN(Cc4cccc(C)c4)CC3)=CC[C@H]12.Cl.Cl` are 60.8%, 66.7% and 71.9%.
Regarding `COC(=O)C1=CN(C)C(=O)[C@@H]2C(CN3CCN(Cc4ccc(Cl)cc4)CC3)=CC[C@H]12.Cl.Cl`, the Activity worked out at 62.7% in the series with Cortical neurone [1], 71% with Cortical neurone [2] and 80.1% with Cortical neurone [3].
For `COC(=O)C1=CN(C)C(=O)[C@@H]2C(CN3CCN(Cc4ccc(C)cc4)CC3)=CC[C@H]12.Cl.Cl`, the results for the Activity in the series on Cortical neurone [1], in the series on Cortical neurone [2] and with Cortical neurone [3] were 59%, 66.9% and 72.6%, respectively.
Turning to `COC(=O)C1=CN(C)C(=O)[C@@H]2C(CN3CCN(Cc4ccc([N+](=O)[O-])cc4)CC3)=CC[C@H]12.Cl.Cl`, the results for the Activity with Cortical neurone [1], with Cortical neurone [2] and with Cortical neurone [3] were 60%, 66.7% and 74.3%, respectively.
The like results for `COC(=O)C1=CN(C)C(=O)[C@@H]2C(CN3CCN(Cc4ccccc4)CC3)=CC[C@H]12.Cl.Cl` were, in that order, 58.6%, 63.7% and 72.3%.
In the case of `COC(=O)C1=CN(C(C)C)C(=O)[C@@H]2C(CN3CCN(Cc4ccc(C)cc4)CC3)=CC[C@H]12.Cl.Cl`, the values for the Activity in the series with Cortical neurone [1], in the series on Cortical neurone [2] and in the series on Cortical neurone [3] were 59%, 73.1% and 85.7%, respectively.
As for `COC(=O)C1=CN(C)C(=O)[C@@H]2C(CN3CCN(Cc4ccc(F)cc4)CC3)=CC[C@H]12.Cl.Cl`, the Activity in the series with Cortical neurone [1] was 63.8%; in the series with Cortical neurone [2], 71.3%; in the series on Cortical neurone [3] it was 85.7%; in [4], 62.5%; in [5], 70.3%; in [6], 78.5%. Also, the Activity result with Hippocampal neurone [11] and with Hippocampal neurone [12] was “Dose-dependent effect” each time. In addition, in series [7], the viability at 48 h, 3.7 µM came out at 98.4%. Also, the viability at 48 h, 33.3 µM in series [8] was 85.1%. The viability at 48 h, 11.1 µM in series [9] was 96.2%. The viability at 48 h, 100 µM in series [10] was determined as 78.5%.
On to `COC(=O)C1=CN(C(C)C)C(=O)[C@@H]2C(CN3CCN(Cc4cccc(C)c4)CC3)=CC[C@H]12.Cl.Cl`, for which the Activity with Cortical neurone [1] is listed as 59%; in the series with Cortical neurone [2] it was 71.3%; in the series on Cortical neurone [3], 84.8%.
In the case of `COC(=O)C1=CN(C(C)C)C(=O)[C@@H]2C(CN3CCN(Cc4cccc(C(F)(F)F)c4)CC3)=CC[C@H]12.Cl.Cl`, the Activity stood at 58.7% with Cortical neurone [1], 71.6% in the series on Cortical neurone [2] and 85.5% in the series on Cortical neurone [3].
On to `COC(=O)C1=CN(C)C(=O)[C@@H]2C(CN3CCN(Cc4ccc(C(F)(F)F)cc4)CC3)=CC[C@H]12.Cl.Cl`, for which the Activity with Cortical neurone [1] worked out at 63%; with Cortical neurone [2] it was 72.2%; with Cortical neurone [3], 80.9%.
With `COC(=O)C1=CN(C(C)C)C(=O)[C@@H]2C(CN3CCN(Cc4ccc([N+](=O)[O-])cc4)CC3)=CC[C@H]12.Cl.Cl`, the Activity with Cortical neurone [1] is recorded as 67.1%; with Cortical neurone [2], 74.3%; in the series with Cortical neurone [3], 87.6%; in series [4], 57.6%; in series [5], 73.8%; in series [6], 82.1%. Besides, the Activity result with Hippocampal neurone [11] and in the series with Hippocampal neurone [12] was “Dose-dependent effect” each time. Also, in series [7], the viability at 48 h, 3.7 µM turned out to be 97.2%. For the same compound, the viability at 48 h, 33.3 µM in series [8] was determined as 88.7%. For the same compound, the viability at 48 h, 11.1 µM in [9] was determined as 99.7%. Moreover, the viability at 48 h, 100 µM in series [10] is 78.5%.
With `COC(=O)C1=CN(C(C)C)C(=O)[C@@H]2C(CN3CCN(Cc4ccc(F)cc4)CC3)=CC[C@H]12.Cl.Cl`, the Activity with Cortical neurone [1] is 65.4%; with Cortical neurone [2] it was 74.4%; with Cortical neurone [3], 86.5%; in [4] it was 60.4%; in series [5], 67.3%; in [6] it was 72.4%. Further, the Activity result with Hippocampal neurone [11] and with Hippocampal neurone [12] was “Dose-dependent effect” each time. In [7], the viability at 48 h, 3.7 µM turned out to be 94.2%. Also, the viability at 48 h, 33.3 µM in series [8] came to 88.4%. In series [9], the viability at 48 h, 11.1 µM was found to be 98.4%. Moreover, in series [10], the viability at 48 h, 100 µM came out at 80.9%.
For `COC(=O)C1=CN(C(C)C)C(=O)[C@@H]2C(CN3CCN(Cc4ccc(Cl)cc4)CC3)=CC[C@H]12.Cl.Cl`, the Activity is on record as 58.7% in the series with Cortical neurone [1], 64.3% with Cortical neurone [2] and 71.9% in the series on Cortical neurone [3].
In the case of `COC(=O)C1=CN(C(C)C)C(=O)[C@@H]2C(CN3CCN(Cc4ccc(C(F)(F)F)cc4)CC3)=CC[C@H]12.Cl.Cl`, the Activity was determined as 59.1% in the series with Cortical neurone [1], 71.6% with Cortical neurone [2] and 85.7% in the series with Cortical neurone [3].
Turning to `COc1cc2c(cc1OC)C(=O)C(CC1CCN(Cc3ccccc3)CC1)C2` (configuration not stated) [DONEPEZIL], the Activity was determined as 65.5% with Cortical neurone [1], 72.3% in the series with Cortical neurone [2] and 85.9% in the series on Cortical neurone [3].
Regarding `CC(=O)N[C@@H](CS)C(=O)O` [ACETYLCYSTEINE], the results for the Activity in [4], in series [5] and in series [6] were 62.6%, 69.5% and 79.1%, respectively.
In the case of `COC(=O)C1=CN(C)C(=O)[C@@H]2C(CN3CCN(Cc4cccc(OC)c4)CC3)=CC[C@H]12.Cl.Cl`, the Activity was 59.5% with Cortical neurone [1], 63.8% in the series on Cortical neurone [2] and 72.5% in the series with Cortical neurone [3].
For `COC(=O)C1=CNC(=O)[C@@H]2C(CO)=CC[C@H]12`, the Activity was determined as 59% in the series on Cortical neurone [1]; 69.4% with Cortical neurone [2]; 79.3% in the series with Cortical neurone [3]; 59% in series [4]; 65.8% in series [5]; 70.9% in series [6].
For `COC(=O)C1=CN(C)C(=O)[C@@H]2C(CN3CCN(Cc4cccc(C(F)(F)F)c4)CC3)=CC[C@H]12.Cl.Cl`, the Activity was determined as 63.3% with Cortical neurone [1], 72.5% with Cortical neurone [2] and 80.3% with Cortical neurone [3].
Take `COC(=O)C1=CN(C(C)C)C(=O)[C@@H]2C(CN3CCN(Cc4ccccc4)CC3)=CC[C@H]12.Cl.Cl`: the Activity was 64.4% in the series on Cortical neurone [1]; 71.8% with Cortical neurone [2]; 84.5% in the series with Cortical neurone [3]; 60.3% in series [4]; 71% in [5]; 76.2% in series [6]. Besides, the Activity entry in the series with Hippocampal neurone [11] and in the series with Hippocampal neurone [12] was “Dose-dependent effect” throughout. Besides, the viability at 48 h, 3.7 µM in series [7] amounted to 90.7%. Further, the viability at 48 h, 33.3 µM in series [8] turned out to be 91.7%. In addition, the viability at 48 h, 11.1 µM in [9] turned out to be 96.3%. Also, in series [10], the viability at 48 h, 100 µM turned out to be 82.5%.
